This assay has as its system human embryonic stem cell line H1. In words: OpenArray qRT-PCR mRNA expression in differentiating H1 cells. It counts as cell-based. Conditions: Example 5, condition A, beginning of Stage 6, 100 nM. The method, then:
In addition to monitoring the metabolic profile of the spent media through daily sampling, representative samples of cells were obtained throughout the differentiation process and tested for mRNA expression of a panel of genes via Applied Biosystems® OpenArray® (Life Technologies) and calculated as fold difference in expression compared to pluripotent ISM cells after 24 hours in culture from the beginning of the experiment. FIGS. 2A through M depict data for expression of the following genes in cells differentiated through the first day of Stage 5: PDX1 (FIG.2A); NKX6.1 (FIG. 2B); PAX4 (FIG. 2C); PAX6 (FIG. 2D); NEUROG3(NGN3) (FIG. 2E); ABCC8 (FIG. 2F); Chromogranin-A (“CHGA”) (FIG. 2G); G6PC2 (FIG. 2H); IAPP (FIG. 2I); insulin (“INS”) (FIG. 2J); glucagon (“GCG”) (FIG. 2K); PTF1a (FIG. 2L); and NEUROD1 (FIG. 2M).
In addition to determining cell protein expression by flow cytometry, samples throughout Stages 3 and 4 of the differentiation process were tested for mRNA expression of a gene panel using OpenArray® qRT-PCR. […]
Throughout the differentiation process cell samples were collected from the suspension cultures for analysis. Samples were analyzed for mRNA expression (OpenArray® qRT-PCR) and protein expression (flow cytometry and florescent immune-histochemistry).
In general terms: Real-time PCR tracks product formation cycle by cycle.

For `C[C@H](NC(=O)Cc1cc(F)cc(F)c1)C(=O)N[C@@H]1C(=O)N(C)c2ccccc2-c2ccccc21` [gamma secretase inhibitor XX], the NGN3 expression result is given as “second induction of NGN3”.

The values above are taken from US20160215268A1, “Suspension Culturing of Pluripotent Stem Cells” (Janssen Biotech, Inc., priority 2014, published 2016).
